Results as given in patent US8846698B2, “Pyrrolo[2,3-d]pyrimidine tropomysin-related kinase inhibitors” (Pfizer Limited, priority 2011, dated 2014).
pIC50: −log10 of the molar value. Structures can show the parent of a compound that is named as a salt.

Biological target: TRKA (Homo sapiens (Human), UniProt P04629)
Assay: Isolated TRK enzyme assay (HTRF KinEASE-TK), TRKA
Type: biochemical
Details: read-out: Trka enzyme (IC50)

TRKA, sequence (P04629 441-796): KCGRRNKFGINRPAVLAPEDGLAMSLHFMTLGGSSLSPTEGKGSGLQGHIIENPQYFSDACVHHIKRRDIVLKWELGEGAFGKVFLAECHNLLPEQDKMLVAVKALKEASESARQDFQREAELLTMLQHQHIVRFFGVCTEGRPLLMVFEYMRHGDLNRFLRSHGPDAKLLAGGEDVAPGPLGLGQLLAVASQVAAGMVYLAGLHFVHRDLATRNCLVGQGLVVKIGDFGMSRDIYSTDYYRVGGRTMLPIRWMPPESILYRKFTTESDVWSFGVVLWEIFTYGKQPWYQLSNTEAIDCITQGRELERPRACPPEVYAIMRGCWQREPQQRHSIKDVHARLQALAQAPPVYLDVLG

Row | pIC50 | Structure (SMILES)
1 | 8.06 | CC(C)(CO)n1cc(C(=O)c2cncc(NC(=O)Cc3ccc(C#N)cc3)c2)c2cnc(N)nc21 [Example 259, N-(5-{[2-amino-7-(2-hydroxy-1,1-dimethylethyl)-7H-pyrrolo[2,3-d]pyrimidin-5-yl]carbonyl}pyridin-3-yl)-2-(4-cyanophenyl)acetamide]
2 | 7.77 | CC(C)n1ncc(CC(=O)Nc2cncc(C(=O)c3cn(C(C)(C)CO)c4nc(N)ncc34)c2)c1C(F)(F)F [Example 260, N-(5-{[2-amino-7-(2-hydroxy-1,1-dimethylethyl)-7H-pyrrolo[2,3-d]pyrimidin-5-yl]carbonyl}pyridin-3-yl)-2-[1-isopropyl-5-(trifluoromethyl)-1H-pyrazol-4-yl]acetamide]
3 | 6.89 | CC(CO)(CO)n1cc(C(=O)c2cncc(NC(=O)Cc3ccc(C#N)c(C(F)(F)F)c3)c2)c2cncnc21 [Example 261]
4 | 7.13 | CC(CO)(CO)n1cc(C(=O)c2cncc(NC(=O)Cc3ccc(F)c(C(F)(F)F)c3)c2)c2cncnc21 [Example 263, N-(5-(7-(1,3-dihydroxy-2-methylpropan-2-yl)-7H-pyrrolo[2,3-d]pyrimidine-5-carbonyl)pyridin-3-yl)-2-(4-fluoro-3-(trifluoromethyl)phenyl)acetamide]
5 | 7.07 | CC(CO)(CO)n1cc(C(=O)c2cncc(NC(=O)c3cccc(C(F)(F)F)c3)c2)c2cncnc21 [Example 264, N-(5-(7-(1,3-dihydroxy-2-methylpropan-2-yl)-7H-pyrrolo[2,3-d]pyrimidine-5-carbonyl)pyridin-3-yl)-3-(trifluoromethyl)benzamide]
6 | 7.16 | CC(CO)(CO)n1cc(C(=O)c2cncc(NC(=O)c3ccc(C(F)(F)F)c(F)c3)c2)c2cncnc21 [Example 265, N-(5-(7-(1,3-dihydroxy-2-methylpropan-2-yl)-7H-pyrrolo[2,3-d]pyrimidine-5-carbonyl)pyridin-3-yl)-3-fluoro-4-(trifluoromethyl)benzamide]
7 | 5.53 | CC(C)n1cc(C(=O)c2cncc(NC(=O)Cc3cccc(CN4CCC4)c3)c2)c2cncnc21 [Example 266, 2-[3-(azetidin-1-ylmethyl)phenyl]-N-{5-[(7-isopropyl-7H-pyrrolo[2,3-d]pyrimidin-5-yl)carbonyl]pyridin-3-yl}acetamide formate salt]
8 | 5.67 | CC(C)n1cc(C(=O)c2cncc(NC(=O)Cc3cccc(CN4CC(F)C4)c3)c2)c2cncnc21 [Example 267, 2-{3-[(3-fluoroazetidin-1-yl)methyl]phenyl}-N-{5-[(7-isopropyl-7H-pyrrolo[2,3-d]pyrimidin-5-yl)carbonyl]pyridin-3-yl}acetamide]
9 | 6.24 | CC(C)n1cc(C(=O)c2cncc(NC(=O)Cc3cccc(CN4CCOCC4)c3)c2)c2cncnc21 [Example 268, N-{5-[(7-isopropyl-7H-pyrrolo[2,3-d]pyrimidin-5-yl)carbonyl]pyridin-3-yl}-2-[3-(morpholin-4-ylmethyl)phenyl]acetamide formate salt]
10 | 6.25 | O=C(Nc1cncc(C(=O)c2cn(C(CO)CO)c3ncncc23)c1)c1cccc(C(F)(F)F)c1 [Example 269, N-(5-(7-(1,3-dihydroxypropan-2-yl)-7H-pyrrolo[2,3-d]pyrimidine-5-carbonyl)pyridin-3-yl)-3-(trifluoromethyl)benzamide]
11 | 6.46 | O=C(Cc1ccc(Cl)cc1)Nc1cncc(C(=O)c2cn(C(CO)CO)c3ncncc23)c1 [Example 270, 2-(4-chlorophenyl)-N-(5-(7-(1,3-dihydroxypropan-2-yl)-7H-pyrrolo[2,3-d]pyrimidine-5-carbonyl)pyridin-3-yl)acetamide]
12 | 7.41 | O=C(Nc1cncc(C(=O)c2cn(C(CO)CO)c3ncncc23)c1)c1cccc(OC(F)(F)F)c1 [Example 271, N-(5-(7-(1,3-dihydroxypropan-2-yl)-7H-pyrrolo[2,3-d]pyrimidine-5-carbonyl)pyridin-3-yl)-3-(trifluoromethoxy)benzamide]
